Assay results as given in patent US4175081A, “5-Substituted thiadiazole ureas” (priority 1977, dated 1979).

Tests used:
Crabgrass (CG) [1] = experiment: Pre-emergence herbicide test; format: in vivo, Digitaria sanquinalis; settings: Digitaria sanguinalis, pre-emergence, 336 h, two weeks after treatment
Summary of the method: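 Crabgrass (Digitaria sanquinalis) was surface seeded in 3' plastic pots of potting soil, covered with screened soil, and watered by sub-irrigation in greenhouse trays. Pots were seeded one day before spraying in a hood with a moving belt and fixed nozzle. Plants stayed in the greenhouse on sub-irrigation, and pre-emergence control was rated visually two weeks after treatment.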

Johnson grass (JG) = experiment: Pre-emergence herbicide test; format: in vivo, Sorgum helepense; settings: Sorghum halepense, 336 h, two weeks after treatment
Summary of the method: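 Visual injury or control rating two weeks post-treatment, after pre-emergence spray of 8 or 4 lbs active per acre (38 gal/acre) onto pots sown the previous day. Greenhouse watering by sub-irrigation only.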

Barnyard grass (BG) = experiment: Pre-emergence herbicide test; format: in vivo; settings: Echinochloa crus-galli, 336 h, two weeks after treatment
Summary of the method: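 Greenhouse pre-emergence spray test: pots seeded one day before treatment received compound at rates of 8 or 4 lb/acre (38 gal/acre). Visual injury/control scores for Echinochloa crus-galli taken at two weeks, with watering by sub-irrigation only.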

Amaranth pigweed (PW) = experiment: Pre-emergence herbicide test; format: in vivo, Amaranthus retroflexus; settings: 336 h, two weeks after treatment
Experimental: All crop and weed species were planted individually in 3' plastic pots containing potting soil. Four seeds each of corn, cotton, and snapbeans were seeded to a depth equal to the diameter of the seed. All other species were surface seeded and sprinkled with screened soil in an amount sufficient to cover the seed. Immediately after planting, all pots were watered by sub-irrigation in greenhouse trays. Pots for the pre-emergence phase were seeded one day before treatment.
Compounds were tested at rates of application equivalent to 8 lbs. of actual compound per acre in a spray volume of 38 gallons per acre. Spray hood constants required to deliver the above volume are as follows:
Formulations for spray applications were prepared in 50 ml volumes with the following three components:
Formulations for the 4 lbs/acre rate were prepared by adjusting the amount of active ingredient accordingly.
Spray applications were made in a hood containing a removable belt and fixed spray nozzle. For passage through the spray hood, one pot of each specie (pre-emergence phase) was placed on the rear half of the flat. Treatments were removed to the greenhouse after spraying. Watering during the observation period was done only by sub-irrigation.
Two weeks after treatment, pre- and post-emergence injury or control was visually rated, and the results were as shown in the following tables. Pre-emergence data are provided in TABLE III and post-emergence data are provided in TABLE IV, for compounds having the formula illustrated in TABLE I. Correspondingly, pre-emergence and post-emergence data, respectively, are set forth in TABLES V AND VI, for compounds having the formula illustrated in TABLE II.

Turnip (TP) [2] = experiment: Pre-emergence herbicide test; format: in vivo, Brassica sp.; settings: Brassica rapa, pre-emergence, 336 h, two weeks after treatment
Summary of the method: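 In this pre-emergence greenhouse test, turnip was seeded on the surface of potting soil in 3' plastic pots, lightly covered with screened soil, and watered from below. One day later the pots were sprayed in a belt-fed spray hood. Watering continued only by sub-irrigation, and percent control was visually scored two weeks after treatment.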

Cotton (CT) [3] = experiment: Pre-emergence herbicide test; format: in vivo, Gossypium hirsutum var. DPL smooth leaf; settings: Gossypium hirsutum, 336 h, two weeks after treatment
Summary of the method: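 Visual injury/control ratings were taken at two weeks post-spray. Pots seeded a day earlier received compound pre-emergence at 8 lbs/acre, or 4 lbs/acre, in a 38 gallon/acre spray volume, and were then held in the greenhouse, watered only from below.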

Corn (CN) = experiment: Pre-emergence herbicide test; format: in vivo; settings: Zea mays, 336 h, two weeks after treatment
Summary of the method: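 Visual injury/control ratings were made 2 weeks post-spray on corn pots seeded (4 seeds, seed-diameter depth) the day before treatment. Application was a belt-hood spray of 38 gal/acre delivering 8 lbs active per acre, with a 4 lbs/acre rate also formulated. Watering was by sub-irrigation throughout.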

Bean (BN) [4] = experiment: Pre-emergence herbicide test; format: in vivo, Phaseolus vulgaris var. Black Valentine; settings: Phaseolus vulgaris, 336 h, two weeks after treatment
Summary of the method: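 Visual injury/control ratings were taken two weeks post-spray on sub-irrigated Phaseolus vulgaris var. Black Valentine. Pots were sown a day before treatment. Pre-emergence spray delivered 8 lbs actual compound per acre (or 4 lbs/acre) at 38 gallons per acre.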

Crabgrass (CG) [5] = experiment: Post-emergence herbicide test; format: in vivo, Digitaria sanquinalis; settings: Digitaria sanguinalis, post-emergence, 336 h, two weeks after treatment
Summary of the method: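 Crabgrass (Digitaria sanquinalis) was surface seeded individually in 3' plastic pots of potting soil, covered with screened soil, and watered by sub-irrigation in greenhouse trays. Planting was staggered so seedlings reached the target stage together. Post-emergence sprays were applied in a hood with a removable belt and fixed nozzle, and control was visually rated two weeks after treatment.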

Turnip (TP) [6] = experiment: Post-emergence herbicide test; format: in vivo, Brassica sp.; settings: Brassica rapa, post-emergence, 336 h, two weeks after treatment
Summary of the method: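 A greenhouse post-emergence herbicide test on turnip. Seeds were sown on the surface of potting soil in 3' plastic pots, lightly covered with screened soil and watered from below. Planting was timed so seedlings had 1 or 2 true leaves above the cotyledons at spraying, done in a hood with a fixed nozzle. Control or injury was scored by eye after two weeks.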

Cotton (CT) [7] = experiment: Post-emergence herbicide test; format: in vivo, Gossypium hirsutum var. DPL smooth leaf; settings: Gossypium hirsutum, post-emergence, 336 h, two weeks after treatment
Summary of the method: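 This greenhouse post-emergence test measured how well spray treatments controlled cotton. Seedlings of Gossypium hirsutum var. DPL smooth leaf, with expanded cotyledons and a first true leaf 1' in length, were sprayed with 50 ml formulations in a belt-fed spray hood. They were then returned to the greenhouse and watered only by sub-irrigation. Injury was scored visually as % control after two weeks.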

Bean (BN) [8] = experiment: Post-emergence herbicide test; format: in vivo, Phaseolus vulgaris var. Black Valentine; settings: Phaseolus vulgaris, post-emergence, 336 h, two weeks after treatment
Summary of the method: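 Bean seedlings (Phaseolus vulgaris var. Black Valentine) were grown in potting soil in 3' pots until the primary leaves expanded. They were then sprayed under a hood with a removable belt and fixed nozzle, using 50 ml formulations. Afterward they were returned to the greenhouse and watered only by sub-irrigation. Percent control was judged visually two weeks after treatment.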

CCCCS(=O)(=O)c1nnc(N(C)C(=O)NC)s1 [Example 92]
pest or weed control at 560.425 g/ha (Crabgrass (CG) [1]; 0.5 lb/acre): 40% | pest or weed control at 1120.85 g/ha (Crabgrass (CG) [1]; 1 lb/acre): 60% | pest or weed control at 2241.7 g/ha (Crabgrass (CG) [1]; 2 lb/acre): 100% | pest or weed control at 4483.4 g/ha (Crabgrass (CG) [1]; 4 lb/acre): 100% | pest or weed control at 560.425 g/ha (Johnson grass (JG); 0.5 lb/acre): 10% | pest or weed control at 1120.85 g/ha (Johnson grass (JG); 1 lb/acre): 10% | pest or weed control at 2241.7 g/ha (Johnson grass (JG); 2 lb/acre): 30% | pest or weed control at 4483.4 g/ha (Johnson grass (JG); 4 lb/acre): 60% | pest or weed control at 560.425 g/ha (Barnyard grass (BG); 0.5 lb/acre): 10% | pest or weed control at 1120.85 g/ha (Barnyard grass (BG); 1 lb/acre): 50% | pest or weed control at 2241.7 g/ha (Barnyard grass (BG); 2 lb/acre): 70% | pest or weed control at 4483.4 g/ha (Barnyard grass (BG); 4 lb/acre): 90% | pest or weed control at 560.425 g/ha (Amaranth pigweed (PW); 0.5 lb/acre): 10% | pest or weed control at 1120.85 g/ha (Amaranth pigweed (PW); 1 lb/acre): 10% | pest or weed control at 2241.7 g/ha (Amaranth pigweed (PW); 2 lb/acre): 30% | pest or weed control at 4483.4 g/ha (Amaranth pigweed (PW); 4 lb/acre): 50% | pest or weed control at 560.425 g/ha (Turnip (TP) [2]; 0.5 lb/acre): 10% | pest or weed control at 1120.85 g/ha (Turnip (TP) [2]; 1 lb/acre): 60% | pest or weed control at 2241.7 g/ha (Turnip (TP) [2]; 2 lb/acre): 90% | pest or weed control at 4483.4 g/ha (Turnip (TP) [2]; 4 lb/acre): 90% | pest or weed control at 560.425 g/ha (Cotton (CT) [3]; 0.5 lb/acre): 10% | pest or weed control at 1120.85 g/ha (Cotton (CT) [3]; 1 lb/acre): 10% | pest or weed control at 2241.7 g/ha (Cotton (CT) [3]; 2 lb/acre): 10% | pest or weed control at 4483.4 g/ha (Cotton (CT) [3]; 4 lb/acre): 10% | pest or weed control at 560.425 g/ha (Corn (CN); 0.5 lb/acre): 10% | pest or weed control at 1120.85 g/ha (Corn (CN); 1 lb/acre): 10% | pest or weed control at 2241.7 g/ha (Corn (CN); 2 lb/acre): 10% | pest or weed control at 4483.4 g/ha (Corn (CN); 4 lb/acre): 10% | pest or weed control at 560.425 g/ha (Bean (BN) [4]; 0.5 lb/acre): 10% | pest or weed control at 1120.85 g/ha (Bean (BN) [4]; 1 lb/acre): 10% | pest or weed control at 2241.7 g/ha (Bean (BN) [4]; 2 lb/acre): 10% | pest or weed control at 4483.4 g/ha (Bean (BN) [4]; 4 lb/acre): 10% | pest or weed control at 560.425 g/ha (Crabgrass (CG) [5]; 0.5 lb/acre): 30% | pest or weed control at 1120.85 g/ha (Crabgrass (CG) [5]; 1 lb/acre): 30% | pest or weed control (Crabgrass (CG) [5]; 2 lb/acre): 90% | pest or weed control at 4483.4 g/ha (Crabgrass (CG) [5]; 4 lb/acre): 90% | pest or weed control at 560.425 g/ha (Turnip (TP) [6]; 0.5 lb/acre): 100% | pest or weed control at 1120.85 g/ha (Turnip (TP) [6]; 1 lb/acre): 100% | pest or weed control at 2241.7 g/ha (Turnip (TP) [6]; 2 lb/acre): 100% | pest or weed control at 4483.4 g/ha (Turnip (TP) [6]; 4 lb/acre): 100% | pest or weed control at 560.425 g/ha (Cotton (CT) [7]; 0.5 lb/acre): 100% | pest or weed control at 1120.85 g/ha (Cotton (CT) [7]; 1 lb/acre): 100% | pest or weed control at 2241.7 g/ha (Cotton (CT) [7]; 2 lb/acre): 100% | pest or weed control at 4483.4 g/ha (Cotton (CT) [7]; 4 lb/acre): 100% | pest or weed control at 560.425 g/ha (Bean (BN) [8]; 0.5 lb/acre): 70% | pest or weed control at 1120.85 g/ha (Bean (BN) [8]; 1 lb/acre): 80% | pest or weed control at 2241.7 g/ha (Bean (BN) [8]; 2 lb/acre): 90% | pest or weed control at 4483.4 g/ha (Bean (BN) [8]; 4 lb/acre): 100%
